Read-outs that look alike come from different tables or passages of the source.
Experiments:
BRD4 = BRD4 (Homo sapiens (Human), UniProt O60885); test: BRD4 IC50 (acetyl-histone binding assay)
Method: (§1) Assays were performed with minor modifications from the manufacturer's protocol (PerkinElmer, USA). All reagents were diluted in 50 mM HEPES, 150 mM NaCl, 0.1% w/v BSA, and 0.01% w/v Tween 20 at pH 7.5 and allowed to equilibrate to room temperature prior to addition to plates. After addition of Alpha beads to master solutions, all subsequent steps were performed in low light conditions. […] Addition to wells was performed with either a multichannel pipet (for optimization experiments) or a Biotek EL406 liquid handler. After a 1000-rpm spin-down for 1 minute, 100 nL of the solutions of the compounds of the invention from stock plates were added by pin transfer using a Janus Workstation (PerkinElmer, USA). The streptavidin-coated donor beads (25 μg/ml final) were added as with previous solution in a 2×, 10 μL volume. Following this addition, the plates were sealed with foil to block light exposure and to prevent evaporation. The plates were spun down again at 1000 rpm for 1 minute. Next, the plates were incubated in the room with the plate reader (for temperature equilibration) for 1.5 hour prior to reading the assay.

BRDT = BRDT (Homo sapiens (Human), UniProt Q58F21); test: BRDT IC50; assay type: binding
Method: as §1

AURKA = AURKA (Homo sapiens (Human), UniProt O14965); test: AURKA IC50; assay type: biochemical
AURKB = AURKB (Homo sapiens (Human), UniProt Q96GD4); test: AURKB IC50; assay type: biochemical
AURKC = AURKC (Homo sapiens (Human), UniProt Q9UQB9); test: AURKC IC50; assay type: biochemical
MV411 = test: Cellular assay, cell viability (ATPlite), MV411; assay type: cell-based; settings: MV411 cell line
Method: (§2) The compounds of the invention are also evaluated in the BRD4 dependant cell line for the cellular activity to generate cellular IC50 values.
(§3) Cells (e.g., BRD4 dependant cells) were counted and adjusted to 60,000 cells/mL. Using a Biotek EL406, 50 μL of the cells in media were distributed into 384 well white plates from Thermo. Immediately after plating, compounds of the invention in DMSO were distributed to plates. For large plate sets, cells were returned to a 37° C. incubator while not in use. The compounds were added to plates using a 100 nL 384 well pin transfer manifold on a Janus workstation. Stocks were arrayed in 10 point quadruplicate dose response in DMSO stock in 384-well Greiner compound plates. After addition of the compounds, plates were incubated for three days in a 37° C. incubator. Cell viability was read out using ATPlite from Perkin Elmer. Plates were removed from the incubator and brought to room temperature prior to use. Lyophilized powder was resuspended in lysis buffer and diluted 1:2 with DI water. 25 μL of this solution was added to each well using the Biotek liquid handler. Plates were sealed with adherent aluminum seals prior to vortexing and spinning down at 1000 g for 1 minute. Plates were incubated for 15 minutes at room temperature before signal was read on an Envision Plate Reader.

NOMO-1 = test: Cellular assay, cell viability (ATPlite), NOMO-1; assay type: cell-based; settings: NOMO-1 cell line
Method: as §2, §3

MOLM-13 = test: Cellular assay, cell viability (ATPlite), MOLM-13; assay type: cell-based; settings: MOLM-13 cell line
Method: as §2, §3

797 = test: Cellular assay, cell viability (ATPlite), 797; assay type: cell-based; settings: 797 cell line
Method: as §2, §3

LRRK2 = LRRK2 (Homo sapiens (Human), UniProt Q5S007); test: LRRK2 IC50; assay type: biochemical
TF-1 = test: Cellular assay, cell viability (ATPlite), TF-1; assay type: cell-based; settings: TF-1 cell line
Method: as §2, §3

Kasumi-1 = test: Cellular assay, cell viability (ATPlite), Kasumi-1; assay type: cell-based; settings: Homo sapiens; Kasumi-1 cell line
Method: as §2, §3

[1] = first BRD4 value listed for the compound
[2] = second BRD4 value listed for the compound

Chain of LRRK2 (Q5S007 whole entry): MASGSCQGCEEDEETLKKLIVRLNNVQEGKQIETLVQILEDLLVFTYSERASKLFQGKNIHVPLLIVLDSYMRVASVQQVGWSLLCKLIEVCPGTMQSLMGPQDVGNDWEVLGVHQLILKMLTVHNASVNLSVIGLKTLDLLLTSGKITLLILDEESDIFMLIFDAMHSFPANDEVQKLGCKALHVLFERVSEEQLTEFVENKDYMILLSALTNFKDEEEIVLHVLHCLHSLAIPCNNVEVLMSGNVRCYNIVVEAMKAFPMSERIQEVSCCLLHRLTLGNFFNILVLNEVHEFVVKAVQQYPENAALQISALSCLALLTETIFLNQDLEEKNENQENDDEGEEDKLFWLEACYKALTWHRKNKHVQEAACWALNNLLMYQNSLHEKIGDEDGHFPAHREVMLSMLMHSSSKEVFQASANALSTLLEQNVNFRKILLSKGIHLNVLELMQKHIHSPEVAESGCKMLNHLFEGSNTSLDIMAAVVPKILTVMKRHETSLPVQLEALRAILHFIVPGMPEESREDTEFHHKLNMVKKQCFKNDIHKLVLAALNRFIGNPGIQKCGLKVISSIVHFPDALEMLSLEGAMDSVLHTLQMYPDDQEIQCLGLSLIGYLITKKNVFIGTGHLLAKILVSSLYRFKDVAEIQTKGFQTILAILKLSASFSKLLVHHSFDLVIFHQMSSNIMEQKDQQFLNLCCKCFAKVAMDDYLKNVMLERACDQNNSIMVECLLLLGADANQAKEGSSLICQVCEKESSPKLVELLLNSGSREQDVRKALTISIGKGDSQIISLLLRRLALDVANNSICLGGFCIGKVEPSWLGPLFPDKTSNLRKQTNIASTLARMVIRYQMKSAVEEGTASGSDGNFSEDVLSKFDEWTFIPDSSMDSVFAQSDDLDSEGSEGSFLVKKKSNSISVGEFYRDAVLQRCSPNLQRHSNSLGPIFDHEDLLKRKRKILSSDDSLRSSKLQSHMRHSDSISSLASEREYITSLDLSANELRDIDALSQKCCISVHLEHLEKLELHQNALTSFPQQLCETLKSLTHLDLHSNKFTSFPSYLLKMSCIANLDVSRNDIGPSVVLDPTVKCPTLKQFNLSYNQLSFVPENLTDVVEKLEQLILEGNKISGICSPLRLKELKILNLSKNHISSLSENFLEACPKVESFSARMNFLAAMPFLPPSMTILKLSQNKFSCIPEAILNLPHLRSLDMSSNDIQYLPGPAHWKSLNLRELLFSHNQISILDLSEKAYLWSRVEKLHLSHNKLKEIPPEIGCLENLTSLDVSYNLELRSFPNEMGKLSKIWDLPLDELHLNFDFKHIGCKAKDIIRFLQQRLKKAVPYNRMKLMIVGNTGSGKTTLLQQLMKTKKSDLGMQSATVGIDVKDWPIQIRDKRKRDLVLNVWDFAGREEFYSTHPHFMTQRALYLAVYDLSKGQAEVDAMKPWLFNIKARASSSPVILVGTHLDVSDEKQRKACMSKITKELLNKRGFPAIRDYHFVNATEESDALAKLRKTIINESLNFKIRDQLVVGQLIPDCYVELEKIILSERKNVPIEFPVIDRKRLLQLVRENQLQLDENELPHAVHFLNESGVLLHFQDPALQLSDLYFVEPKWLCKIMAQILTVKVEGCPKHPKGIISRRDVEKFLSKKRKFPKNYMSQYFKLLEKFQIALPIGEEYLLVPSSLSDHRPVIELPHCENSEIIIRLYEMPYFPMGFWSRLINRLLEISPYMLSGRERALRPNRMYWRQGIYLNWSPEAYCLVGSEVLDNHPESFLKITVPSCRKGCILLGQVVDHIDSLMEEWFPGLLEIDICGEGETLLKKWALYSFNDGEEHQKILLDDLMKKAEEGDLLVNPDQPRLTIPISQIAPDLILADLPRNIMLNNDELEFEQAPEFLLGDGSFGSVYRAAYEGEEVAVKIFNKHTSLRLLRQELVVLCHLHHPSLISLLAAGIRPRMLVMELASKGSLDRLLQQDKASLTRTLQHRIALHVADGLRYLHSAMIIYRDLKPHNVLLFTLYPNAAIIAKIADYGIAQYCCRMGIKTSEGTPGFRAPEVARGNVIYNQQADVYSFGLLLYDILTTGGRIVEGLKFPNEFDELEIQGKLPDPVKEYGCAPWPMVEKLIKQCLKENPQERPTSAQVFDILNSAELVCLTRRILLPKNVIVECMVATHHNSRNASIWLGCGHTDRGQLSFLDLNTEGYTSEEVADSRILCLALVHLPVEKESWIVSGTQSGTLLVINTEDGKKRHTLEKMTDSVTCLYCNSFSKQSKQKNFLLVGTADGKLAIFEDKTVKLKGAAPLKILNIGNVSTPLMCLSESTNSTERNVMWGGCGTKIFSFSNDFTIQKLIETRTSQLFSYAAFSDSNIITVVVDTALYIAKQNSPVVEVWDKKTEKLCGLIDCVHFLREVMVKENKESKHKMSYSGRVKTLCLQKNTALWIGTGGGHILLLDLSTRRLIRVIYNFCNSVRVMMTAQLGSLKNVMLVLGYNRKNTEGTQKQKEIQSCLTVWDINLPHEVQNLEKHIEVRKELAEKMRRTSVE
Chain of AURKC (Q9UQB9 whole entry): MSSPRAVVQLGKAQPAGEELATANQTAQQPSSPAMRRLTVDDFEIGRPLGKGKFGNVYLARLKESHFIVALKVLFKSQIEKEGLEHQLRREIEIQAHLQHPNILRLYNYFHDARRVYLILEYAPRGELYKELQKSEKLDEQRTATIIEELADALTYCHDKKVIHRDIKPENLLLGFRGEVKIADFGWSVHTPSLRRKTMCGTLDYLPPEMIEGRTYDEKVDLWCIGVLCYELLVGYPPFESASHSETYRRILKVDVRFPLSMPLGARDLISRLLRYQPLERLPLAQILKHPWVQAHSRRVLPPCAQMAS
Chain of AURKA (O14965 whole entry): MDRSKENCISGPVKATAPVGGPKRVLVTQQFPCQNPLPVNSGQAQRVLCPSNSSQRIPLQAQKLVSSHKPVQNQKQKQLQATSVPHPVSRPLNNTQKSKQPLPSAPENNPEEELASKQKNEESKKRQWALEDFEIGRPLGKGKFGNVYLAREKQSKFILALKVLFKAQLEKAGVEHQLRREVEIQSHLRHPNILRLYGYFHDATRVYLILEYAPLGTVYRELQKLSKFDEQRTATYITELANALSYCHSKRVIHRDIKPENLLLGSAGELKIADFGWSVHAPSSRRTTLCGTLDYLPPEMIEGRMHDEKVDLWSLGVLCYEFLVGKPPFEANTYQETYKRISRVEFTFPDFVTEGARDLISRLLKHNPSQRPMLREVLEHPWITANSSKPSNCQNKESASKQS
Chain of AURKB (Q96GD4 whole entry): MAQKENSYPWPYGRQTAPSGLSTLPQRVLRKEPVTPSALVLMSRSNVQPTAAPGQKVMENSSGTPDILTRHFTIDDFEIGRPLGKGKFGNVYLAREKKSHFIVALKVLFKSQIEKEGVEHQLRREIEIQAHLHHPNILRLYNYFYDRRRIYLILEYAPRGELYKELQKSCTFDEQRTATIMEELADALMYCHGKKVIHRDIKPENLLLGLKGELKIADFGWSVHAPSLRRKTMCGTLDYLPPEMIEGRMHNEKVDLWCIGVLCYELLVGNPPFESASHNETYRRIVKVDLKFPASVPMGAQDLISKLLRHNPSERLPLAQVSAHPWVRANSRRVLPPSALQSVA

Row | SMILES | IC50 (BRD4; [1]) [µM] | IC50 (BRD4; [2]) [µM] | IC50 (BRDT) [µM] | IC50 (AURKA) [µM] | IC50 (AURKB) [µM] | IC50 (AURKC) [µM] | IC50 (MV411) [µM] | IC50 (NOMO-1) [µM] | IC50 (MOLM-13) [µM] | IC50 797 [µM] | IC50 (LRRK2) [µM] | IC50 (MV411; Homo sapiens, MV4-11) [µM] | IC50 (NOMO-1; Homo sapiens) [µM] | IC50 (MOLM-13; Homo sapiens) [µM] | IC50 (BRD4) [µM] | TF-1 IC50 (TF-1; result in words) | IC50 (Kasumi-1) [µM] | IC50 (TF-1; Homo sapiens) [µM]
1 | CN1C(=O)c2ccccc2N(C)c2nc(Nc3ccc(S(N)(=O)=O)cc3)ccc21 [Compound 2-221] | 2.99 | 3.27 | 5.66 | > 10 | > 10 | > 10 | 3.25 | > 20 | 10.9 | 9.28 |  |  |  |  |  |  |  | 
2 | COc1cc(C(=O)NC2CCN(C)CC2)ccc1Nc1ccc2c(n1)N(C)c1ccccc1C(=O)N2C [Compound 2-227] | 2.14 | 1.87 | 5.41 |  |  |  | 1.95 | 6.36 | 4.25 | 5.76 | > 10 |  |  |  |  |  |  | 
3 | COc1cc(C(=O)N2CCC(N3CCN(C)CC3)CC2)ccc1Nc1ccc2c(n1)N(C)c1ccccc1C(=O)N2C [Compound 3] | 1.37 | 0.813 | 3.68 |  |  |  |  |  |  | 2.49 | > 10 | 1.42 | 7.23 | 2.92 |  |  |  | 
4 | C[C@@H](Oc1cc(-n2cnc3ccc(CN4CCN(C)CC4)cc32)sc1C(N)=O)c1ccccc1C(F)(F)F [GSK461364, reference compound] |  |  | > 50 |  |  |  |  |  |  |  |  |  |  |  | > 50 | poor convergence |  | 
5 | Cc1sc2c(c1C)C(c1ccc(Cl)cc1)=N[C@@H](CC(=O)OC(C)(C)C)c1nnc(C)n1-2 [JQ1, reference compound] |  |  |  |  |  |  |  |  |  | 0.092 |  | 0.0656 | 0.172 | 0.0892 |  |  | 0.0488 | 0.109

From patent publication US9695172B2, “Diazepane derivatives and uses thereof” (Dana-Farber Cancer Institute, Inc., priority 2014, dated 2017)
